How the values were obtained:
GALAP (Galium) = test: Preemergence herbicidal evaluation; format: in vivo, Galium aparine; details: preemergence, rated 4-5 weeks after treatment, 0-9 scale
Summary of the method: (§1)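 Scores (0–9) reflect visual comparison with control plants for stand, vigor, malformation, size and chlorosis. Compound was applied to the soil after sowing, before emergence, as an aqueous acetone spray (about 0.0156–0.500 kg/ha), and cups were kept in a greenhouse for 4–5 weeks.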

ZEAMX (Corn, Field) = test: Postemergence herbicidal evaluation; format: in vivo, Zea mays; details: postemergence
Summary of the method: (§2)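 Herbicidal effect was judged by eye on a 0–9 scale covering stand, vigor, deformity, size and chlorosis, compared with controls, four to five weeks after seedlings about two weeks old were sprayed (40 psi, ~0.0156–0.500 kg/ha).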

ABUTH (Velvetleaf) = test: Postemergence herbicidal evaluation; format: in vivo, Abutilon theophrasti; details: postemergence
Summary of the method: as §2

CYPIR (Rice Flatsedge) = test: Postemergence weed control under flooded paddy conditions; format: in vivo, Cyperus iria; details: postemergence weeds, rated 3 to 4 weeks after treatment
Summary of the method: (§3)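 Containers holding 3–5 cm weeds and rice at 1.5–2.5 leaves are flooded to 1.5–3 cm above soil. Compound in 50/50 v/v aqueous/acetone is then added directly to the water, about 0.0313–0.500 kg/ha. Plants are kept in the greenhouse and rated 0–9 visually at 3–4 weeks.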

[1] = tested on: CHEAL (Lambsquarters, Common); test: Preemergence herbicidal evaluation; format: in vivo, Chenopodium album; details: preemergence, rated 4-5 weeks after treatment, 0-9 scale
Summary of the method: as §1

ORYSAT (Rice, Tebonnet) = test: Postemergence herbicidal evaluation; format: in vivo, Oryza sativa, (L.) Tebonnet; details: postemergence
Summary of the method: as §2

[2] = tested on: CHEAL (Lambsquarters, Common); test: Postemergence herbicidal evaluation; format: in vivo, Chenopodium album; details: postemergence
Summary of the method: as §2

[3] = tested on: GLXMAW (Soybean, Williams); test: Postemergence herbicidal evaluation; format: in vivo, Glycine max, (L.) Merr. cv Williams; details: postemergence
Summary of the method: as §2

AMBEL (Ragweed, Common) [4] = test: Postemergence herbicidal evaluation; format: in vivo, Ambrosia artemisifolia; details: postemergence
Summary of the method: as §2

CYPSE (Flatsedge) [5] = test: Postemergence weed control under flooded paddy conditions; format: in vivo, Cyperus serotinus; details: postemergence weeds, rated 3 to 4 weeks after treatment
Summary of the method: as §3

AMBEL (Ragweed, Common) [6] = test: Preemergence herbicidal evaluation; format: in vivo, Ambrosia artemisifolia; details: preemergence, rated 4-5 weeks after treatment, 0-9 scale
Summary of the method: as §1

CYPSE (Flatsedge) [7] = test: Preemergence weed control under flooded paddy conditions; format: in vivo, Cyperus serotinus; details: rated 3-4 weeks after treatment
Summary of the method: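 Silt loam, seeds in top 0.5 cm; flood held 1.5-3 cm; test cpd as acetone/water 50/50 into flood water, ~0.0313-0.500 kg/ha a.i.; greenhouse 3-4 wk; visual 0-9 score vs control.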

CASOB (Sicklepod) = test: Preemergence herbicidal evaluation; format: in vivo, Cassia obtusifolia; details: preemergence, rated 4-5 weeks after treatment, 0-9 scale
Summary of the method: as §1

ECHCG (Barnyardgrass) = test: Postemergence herbicidal evaluation; format: in vivo, Echinochloa crus-galli; details: postemergence
Summary of the method: as §2

CCOC(=O)CN1C(=O)C(CC(=O)NS(=O)(=O)CC)SC1=Nc1cc(-n2c(=O)cc(C(F)(F)F)n(C)c2=O)c(F)cc1Cl (stereo not drawn) [Compound 103, Ethyl 2-{{2-chloro-5-[3,6-dihydro-3-methyl-2,6-dioxo-4-(trifluoromethyl)-1(2H)-pyrimidinyl]-4-fluorophenyl}imino}-5-{[(ethylsulfonyl)carbamoyl]-methyl}-4-oxo-3-thiazolidineacetate]
GALAP rating (GALAP (Galium); 0.0313 kg/ha): 0.0 | GALAP rating (GALAP (Galium); 0.0625 kg/ha): 0.0 | GALAP rating (GALAP (Galium); 0.1250 kg/ha): 0.0 | GALAP rating (GALAP (Galium); 0.2500 kg/ha): 0.0 | GALAP rating (GALAP (Galium); 0.5000 kg/ha): 7.0 | herbicidal rating ZEAMX (ZEAMX (Corn, Field); rate 0.0156 kg/ha): 5.5 | herbicidal rating ZEAMX (ZEAMX (Corn, Field); rate 0.0313 kg/ha): 7.5 | herbicidal rating ZEAMX (ZEAMX (Corn, Field); rate 0.0625 kg/ha): 8.5 | herbicidal rating ZEAMX (ZEAMX (Corn, Field); rate 0.1250 kg/ha): 8.5 | herbicidal rating ABUTH (ABUTH (Velvetleaf); rate 0.0156 kg/ha): 9.0 | herbicidal rating ABUTH (ABUTH (Velvetleaf); rate 0.0313 kg/ha): 9.0 | herbicidal rating ABUTH (ABUTH (Velvetleaf); rate 0.0625 kg/ha): 9.0 | herbicidal rating ABUTH (ABUTH (Velvetleaf); rate 0.1250 kg/ha): 9.0 | Herbicidal rating CYPIR (CYPIR (Rice Flatsedge); Rate 0.0313 kg/ha): 4.0 | Herbicidal rating CYPIR (CYPIR (Rice Flatsedge); Rate 0.0625 kg/ha): 6.0 | Herbicidal rating CYPIR (CYPIR (Rice Flatsedge); Rate 0.1250 kg/ha): 9.0 | Herbicidal rating CYPIR (CYPIR (Rice Flatsedge); Rate 0.2500 kg/ha): 9.0 | CHEAL rating ([1]; 0.0313 kg/ha): 0.0 | CHEAL rating ([1]; 0.0625 kg/ha): 4.0 | CHEAL rating ([1]; 0.1250 kg/ha): 9.0 | CHEAL rating ([1]; 0.2500 kg/ha): 9.0 | CHEAL rating ([1]; 0.5000 kg/ha): 9.0 | herbicidal rating ORYSAT (ORYSAT (Rice, Tebonnet); rate 0.0156 kg/ha): 1.5 | herbicidal rating ORYSAT (ORYSAT (Rice, Tebonnet); rate 0.0313 kg/ha): 2.0 | herbicidal rating ORYSAT (ORYSAT (Rice, Tebonnet); rate 0.0625 kg/ha): 2.5 | herbicidal rating ORYSAT (ORYSAT (Rice, Tebonnet); rate 0.1250 kg/ha): 3.5 | herbicidal rating CHEAL ([2]; rate 0.0156 kg/ha): 3.0 | herbicidal rating CHEAL ([2]; rate 0.0313 kg/ha): 3.0 | herbicidal rating CHEAL ([2]; rate 0.0625 kg/ha): 5.0 | herbicidal rating CHEAL ([2]; rate 0.1250 kg/ha): 9.0 | herbicidal rating GLXMAW ([3]; rate 0.0156 kg/ha): 8.0 | herbicidal rating GLXMAW ([3]; rate 0.0313 kg/ha): 7.0 | herbicidal rating GLXMAW ([3]; rate 0.0625 kg/ha): 9.0 | herbicidal rating GLXMAW ([3]; rate 0.1250 kg/ha): 9.0 | herbicidal rating AMBEL (AMBEL (Ragweed, Common) [4]; rate 0.0156 kg/ha): 9.0 | herbicidal rating AMBEL (AMBEL (Ragweed, Common) [4]; rate 0.0313 kg/ha): 9.0 | herbicidal rating AMBEL (AMBEL (Ragweed, Common) [4]; rate 0.0625 kg/ha): 9.0 | herbicidal rating AMBEL (AMBEL (Ragweed, Common) [4]; rate 0.1250 kg/ha): 9.0 | Herbicidal rating CYPSE (CYPSE (Flatsedge) [5]; Rate 0.0313 kg/ha): 5.0 | Herbicidal rating CYPSE (CYPSE (Flatsedge) [5]; Rate 0.0625 kg/ha): 5.0 | Herbicidal rating CYPSE (CYPSE (Flatsedge) [5]; Rate 0.1250 kg/ha): 6.0 | Herbicidal rating CYPSE (CYPSE (Flatsedge) [5]; Rate 0.2500 kg/ha): 6.0 | AMBEL rating (AMBEL (Ragweed, Common) [6]; 0.0313 kg/ha): 0.0 | AMBEL rating (AMBEL (Ragweed, Common) [6]; 0.0625 kg/ha): 0.0 | AMBEL rating (AMBEL (Ragweed, Common) [6]; 0.1250 kg/ha): 0.0 | AMBEL rating (AMBEL (Ragweed, Common) [6]; 0.2500 kg/ha): 4.0 | AMBEL rating (AMBEL (Ragweed, Common) [6]; 0.5000 kg/ha): 9.0 | CYPSE herbicidal effect rating (CYPSE (Flatsedge) [7]; 0.0313 kg/ha): 5.0 | CYPSE herbicidal effect rating (CYPSE (Flatsedge) [7]; 0.0625 kg/ha): 5.0 | CYPSE herbicidal effect rating (CYPSE (Flatsedge) [7]; 0.1250 kg/ha): 6.0 | CYPSE herbicidal effect rating (CYPSE (Flatsedge) [7]; 0.2500 kg/ha): 6.0 | CASOB rating (CASOB (Sicklepod); 0.0313 kg/ha): 0.0 | CASOB rating (CASOB (Sicklepod); 0.0625 kg/ha): 0.0 | CASOB rating (CASOB (Sicklepod); 0.1250 kg/ha): 0.0 | CASOB rating (CASOB (Sicklepod); 0.2500 kg/ha): 3.0 | CASOB rating (CASOB (Sicklepod); 0.5000 kg/ha): 3.0 | herbicidal rating ECHCG (ECHCG (Barnyardgrass); rate 0.0156 kg/ha): 3.0 | herbicidal rating ECHCG (ECHCG (Barnyardgrass); rate 0.0313 kg/ha): 9.0 | herbicidal rating ECHCG (ECHCG (Barnyardgrass); rate 0.0625 kg/ha): 9.0 | herbicidal rating ECHCG (ECHCG (Barnyardgrass); rate 0.1250 kg/ha): 9.0

From US20020137929A1, “1 - (3-heterocyclylphenyl) isothiourea, -isourea, -guanidine and -amidine herbicidal agents” (Intellectual Property Department, BASF Aktiengesellschaft, priority 1998, published 2002)
